Laboratory results reported in PubChem BioAssay AID256 (DTP/NCI, 2004).
Inconclusive results and toxic doses are left out.

Test system: CD2F1 mice, L1210 leukemia ip, survival T/C
Assay: NCI In Vivo Anticancer Drug Screen. Data for tumor model L1210 Leukemia (intraperitoneal) in CD2F1 (CDF1) mice
Conditions: higher = longer survival
In short: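 Antitumor effect is scored in animals hosting a serially transplanted tumor. Values compare compound-dosed animals against vehicle-only controls as a simple quotient.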

[1] = endpoint: mean survival time, dose: 100.0 mg/kg/injection, schedule: Q04DX003 (ip), vehicle: saline with Tween-80
[2] = endpoint: mean survival time, dose: 200.0 mg/kg/injection, schedule: Q04DX003 (ip), vehicle: saline with Tween-80
[3] = endpoint: mean survival time, dose: 400.0 mg/kg/injection, schedule: Q04DX003 (ip), vehicle: saline with Tween-80
[4] = endpoint: mean survival time, dose: 25.0 mg/kg/injection, schedule: Q01DX009 (ip), vehicle: saline with Tween-80
[5] = endpoint: mean survival time, dose: 50.0 mg/kg/injection, schedule: Q01DX009 (ip), vehicle: saline with Tween-80
[6] = endpoint: mean survival time, dose: 12.5 mg/kg/injection, schedule: Q01DX009 (ip), vehicle: saline with Tween-80
[7] = endpoint: mean survival time, dose: 100.0 mg/kg/injection, schedule: Q01DX009 (ip), vehicle: saline with Tween-80
[8] = endpoint: mean survival time, dose: 200.0 mg/kg/injection, schedule: Q01DX009 (ip), vehicle: saline with Tween-80
[9] = endpoint: mean survival time, dose: 100.0 mg/kg/injection, schedule: Q04DX002 (ip), vehicle: saline with Tween-80
[10] = endpoint: mean survival time, dose: 200.0 mg/kg/injection, schedule: Q04DX002 (ip), vehicle: saline with Tween-80
[11] = endpoint: mean survival time, dose: 400.0 mg/kg/injection, schedule: Q04DX002 (ip), vehicle: saline with Tween-80

## O=C/C=C/Nc1ccccc1
endpoint: mean survival time, dose: 100.0 mg/kg/injection, schedule: Q01DX009 (ip), vehicle: saline
  T/C: 94 % of control
endpoint: mean survival time, dose: 200.0 mg/kg/injection, schedule: Q01DX009 (ip), vehicle: saline
  T/C: 102 % of control
endpoint: mean survival time, dose: 400.0 mg/kg/injection, schedule: Q01DX009 (ip), vehicle: saline
  T/C: 96 % of control

## O=C(O)Cc1cc2c(cc1I)OCO2
[1]
  T/C: 100 % of control
[2]
  T/C: 95 % of control
[3]
  T/C: 101 % of control

## CC1=NN(c2ccccc2)C(=O)C1(Br)Br
[4]
  T/C: 96 % of control
[5]
  T/C: 98 % of control

## NC(=S)NN=C1CCCCC1
endpoint: mean survival time, dose: 6.25 mg/kg/injection, schedule: Q01DX009 (ip), vehicle: saline with Tween-80
  T/C: 98 % of control
[6]
  T/C: 96 % of control
[4]
  T/C: 98 % of control

## CCOc1nnc(-c2ccccc2)o1
endpoint: mean survival time, dose: 12.5 mg/kg/injection, schedule: Q01DX009 (ip), vehicle: other
  T/C: 92 % of control
endpoint: mean survival time, dose: 25.0 mg/kg/injection, schedule: Q01DX009 (ip), vehicle: other
  T/C: 96 % of control
endpoint: mean survival time, dose: 50.0 mg/kg/injection, schedule: Q01DX009 (ip), vehicle: other
  T/C: 97 % of control
endpoint: mean survival time, dose: 100.0 mg/kg/injection, schedule: Q01DX009 (ip), vehicle: other
  T/C: 100 % of control
endpoint: mean survival time, dose: 200.0 mg/kg/injection, schedule: Q01DX009 (ip), vehicle: other
  T/C: 97 % of control

## O=C1C2(CCCCC2)C(=O)C12CCCCC2
[5]
  T/C: 96 % of control
[7]
  T/C: 110 % of control
[8]
  T/C: 93 % of control

## CC(=O)Nc1nc(/C=C\c2ccc([N+](=O)[O-])cc2)c(CCCCc2ccccc2)c(=O)[nH]1
endpoint: mean survival time, dose: 3.13 mg/kg/injection, schedule: Q01DX001 (ip), vehicle: saline with Tween-80
  T/C: 98 % of control
endpoint: mean survival time, dose: 6.25 mg/kg/injection, schedule: Q01DX001 (ip), vehicle: saline with Tween-80
  T/C: 96 % of control
endpoint: mean survival time, dose: 12.5 mg/kg/injection, schedule: Q01DX001 (ip), vehicle: saline with Tween-80
  T/C: 98 % of control

## CCOC(=O)C1CC(O)CN1 (stereo not given)
endpoint: mean survival time, dose: 100.0 mg/kg/injection, schedule: Q01DX009 (ip), vehicle: saline sonified
  T/C: 98 % of control
endpoint: mean survival time, dose: 200.0 mg/kg/injection, schedule: Q01DX009 (ip), vehicle: saline sonified
  T/C: 95 % of control
endpoint: mean survival time, dose: 400.0 mg/kg/injection, schedule: Q01DX009 (ip), vehicle: saline sonified
  T/C: 92 % of control

## C(=N\Nc1nn[nH]n1)/c1ccccc1
[4]
  T/C: 105 % of control
[5]
  T/C: 97 % of control
[7]
  T/C: 108 % of control

## Cc1ccc(NC(=O)Oc2cc(C)c(Cl)cc2C)cc1C
[5]
  T/C: 100 % of control
[7]
  T/C: 100 % of control
[8]
  T/C: 92 % of control

## O=C(C1CC1)N1CCC(O)(c2ccccc2)CC1
[9]
  T/C: 97 % of control
[10]
  T/C: 93 % of control
[11]
  T/C: 93 % of control

## Cc1ccc(-n2c(O)c(N=Nc3ccccc3)c(=O)n(-c3ccc(C)cc3)c2=S)cc1
endpoint: mean survival time, dose: 100.0 mg/kg/injection, schedule: Q01DX001 (ip), vehicle: saline with Tween-80
  T/C: 95 % of control
endpoint: mean survival time, dose: 200.0 mg/kg/injection, schedule: Q01DX001 (ip), vehicle: saline with Tween-80
  T/C: 100 % of control
endpoint: mean survival time, dose: 400.0 mg/kg/injection, schedule: Q01DX001 (ip), vehicle: saline with Tween-80
  T/C: 97 % of control

## CN(C)c1ccc(/C=N/NC(=O)CNC(=O)Nc2cccc(C(F)(F)F)c2)cc1
[5]
  T/C: 96 % of control
[7]
  T/C: 92 % of control
[8]
  T/C: 88 % of control

## Nc1ccc(I)cc1F
[1]
  T/C: 100 % of control
[2]
  T/C: 104 % of control
[3]
  T/C: 100 % of control

## CNc1cccnc1/C=N/NC(N)=S
[6]
  T/C: 104 % of control
[5]
  T/C: 154 % of control
[7]
  T/C: 162 % of control
[8]
  T/C: 181 % of control
endpoint: mean survival time, dose: 400.0 mg/kg/injection, schedule: Q01DX009 (ip), vehicle: saline with Tween-80
  T/C: 90 % of control

## O=C1C2C=CC=CC1C1C=CC=CC21 (stereo not given)
endpoint: median survival time, dose: 50.0 mg/kg/injection, schedule: Q04DX002 (ip), vehicle: saline with Tween-80
  T/C: 112 % of control
endpoint: median survival time, dose: 100.0 mg/kg/injection, schedule: Q04DX002 (ip), vehicle: saline with Tween-80
  T/C: 100 % of control
endpoint: median survival time, dose: 200.0 mg/kg/injection, schedule: Q04DX002 (ip), vehicle: saline with Tween-80
  T/C: 100 % of control
endpoint: median survival time, dose: 400.0 mg/kg/injection, schedule: Q04DX002 (ip), vehicle: saline with Tween-80
  T/C: 100 % of control

## CN(C)C(=O)SCCSC(=O)N(C)C
[9]
  T/C: 106 % of control
[10]
  T/C: 92 % of control
[11]
  T/C: 95 % of control
